Experiment [1] deals with Murine peritoneal macrophages (PMΦ). The experiment is described as follows: Macrophage activation assay: LPS/IFNγ-induced inflammatory cytokine expression (ELISA, Luminex). It counts as cell-based, mouse. As to conditions: for Percentage inhibition of LPS/IFNγ-induced inflammatory cytokine expression: RANTES / Percentage inhibition of LPS/IFNγ-induced inflammatory cytokine expression: TNFα / Percentage inhibition of LPS/IFNγ-induced inflammatory cytokine expression: IL-1β / Percentage inhibition of LPS/IFNγ-induced inflammatory cytokine expression: IL-6 / Percentage inhibition of LPS/IFNγ-induced inflammatory cytokine expression: IL-12 p40: PMΦ; for Percentage inhibition of LPS/IFNγ-induced inflammatory cytokine expression: RANTES / Percentage inhibition of LPS/IFNγ-induced inflammatory cytokine expression: TNFα: pre-treatment 1 h (0.1 pM-100 nM), then LPS 100 ng/ml + IFNγ 20 ng/ml 15 h, optimal dose (1 pM Chemerin and C15, 100 pM C13 and C19); for Anti-inflammatory activity in the MΦ activation assay: peptides 0.1 pM-100 nM; for Suppression of LPS/IFNγ-induced RANTES secretion (FIG. 2B) / Suppression of LPS/IFNγ-induced TNFα expression (FIG. 2B): C13m 100 pM, C15m 1 pM, C17m 1 pM, pre-treatment 1 h then LPS/IFNγ 15 h; for Percentage inhibition of LPS/IFNγ-induced inflammatory cytokine expression: IL-1β / Percentage inhibition of LPS/IFNγ-induced inflammatory cytokine expression: IL-6 / Percentage inhibition of LPS/IFNγ-induced inflammatory cytokine expression: IL-12 p40: pre-treatment 1 h, then LPS/IFNγ 15 h, 1 pM Chemerin and C15; for Optimal dose (maximal response) for suppression of LPS/IFNγ-induced cytokine expression: macrophage activation assay. The procedure: Murine peritoneal macrophages (PMθ, also referred to as PMΦ herein) were cultured under various conditions: Untreated; LPS (100 ng/ml) and IFNγ (20 ng/ml) for 15 h; Chemerin (1 pM) pre-treatment for 1 h then LPS/IFNγ for 15 h; Leupeptin (protease inhibitor; 15 mg/ml) and Chemerin (1 pM) for 1 h then LPS/IFNγ for 15 h; or Dexamethasone (positive control; 1 μM pre-treatment for 1 h then LPS/IFNγ for 15 h.
Murine PMθ were cultured under various conditions: Untreated, LPS (100 ng/ml) and IFNγ (20 ng/ml) for 15 h; Chemerin peptides (at a concentration of 1 pM-100 nM) pre-treatment for 1 h then LPS/IFNγ for 15 h. […] Experiments were performed with triplicate determinations for each treatment. Representative data from five independent experiments employing cells from different groups of C57B16/J mice are shown. p<0.01 **; p<0.001 *** relative to LPS/IFNγ treated samples.
With reference to Table 1, anti-inflammatory activity of chemerin-derived peptides—Murine PMΦ were cultured as described for FIG. 1B and were challenged with LPS (100 ng/ml) and IFNγ (20 ng/ml) for 15 h with/without pre-treatment with peptides (0.1 pM-100 nM) for 1 h. […] Peptide sequences are: C11 (P144-A154; […]), C13 (P144-S156; […]), C15 (A140-A154; […]), C19 (A138-S156; […]; Seq ID: No. 37), N19 (E23-K41; […] Seq ID No: 44) and M20 (K86-K105; […] Seq ID No. 45). Control peptides: scrambled C15 (C15-S; […]) and mutant C15 (C15-M; […]; F148A & F153A). Data represent mean percentage inhibition of cytokine production by classically activated macrophages from 4-8 independent experiments as determined by ELISA and Luminex assay.
1 ml 2% BioGEL polyacrylamide beads in sterile Phosphate-Buffered Saline (PBS) were injected intraperitoneally (ip) into C57B1/6J mice. Four days after ip BioGEL administration, mice were sacrificed by the CO, method according to Home Office guidelines. Peritoneal cavities were flushed with 10 ml sterile PBS-2 mM EDTA to harvest BioGEL-evoked/elicited cellular infiltrate. Suspensions of harvested cells were centrifuged at 1000×g for 5 mins at 4° C. The supernatants were discarded and cell pellets were resuspended in 6 mls OptiMEM medium supplemented with 2 mM Glutamine, 50 units/ml Penicillin and 50 μg/ml Streptomycin. Macrophages were quantified following incubation on ice for 5-10 mins with Turk's solution using a haemocytometer. Cell suspensions (2 mls; 1.5×10^6/well) were plated in six-well tissue culture plates (35 mm diameter: Costar, UK) and allowed to adhere for 2 hours at 37° C. in a humidified atmosphere containing 5% CO2, to isolate macrophage populations by adherence. This gave greater than 95% purity assessed by cytospinning, staining of cells with Methylene Blue and Eosin and counting based on cellular morphology. Nonadherent cells (mainly granulocytes) were discarded and wells were washed three times with sterile PBS to remove loosely adherent or dead cells. […] To determine PTX sensitivity and dependency upon proteolysis, cells were pre-incubated with PTX (200 ng/ml) or Leupeptin (15 μg/ml). Additional cells were treated with peptides alone. Supernatants were harvested and stored at −20° C. until use in Enzyme-Linked Immunosorbance Assays (ELISAs) and Luminex assays. Cells were lysed to allow extraction of total RNA by the TRIZOL method. Lysates were stored at −80° C. until RNA extraction following manufacturer's guidelines (Qiagen, RNeasy Mini Prep Kit).
RANTES, Tumour necrosis factor (TNFα) and CCL9 concentrations in cell supernatants were assessed by ELISA. IL-12 p40, IL-10, IL-1β, TNFα, MCP-1 (Monocyte chemoattractant protein-1) and IL-6 levels were determined by Luminex multiplex bead assay (Bio-rad 6 plex assay). Lower limits of detection for ELISAs were 0.1-0.5 ng/ml and 10-50 pg/ml for Luminex assays.
(In general: In an ELISA, binding on a coated surface is turned into a signal by an enzyme label.)

For experiment [2], the system named is PMΦ (peritoneal macrophages). The experiment is described as follows: Secondary chemotaxis assay towards conditioned media from treated macrophages. It counts as cell-based, mouse. The following applies: relative to LPS/IFNγ conditioned medium. From the text: Given the well established role of MΦ-derived chemoattractants in the recruitment of immune cells during inflammation (Glabinski, A. R., et al., (1998). Neuroimmunomodulation 5:166-171; Huang, D. J. et al., (2001). J. Exp. Med. 193:713-726), conditioned media was used from untreated MΦ and MΦ treated with chemerin+LPS/IFNγ, C15+LPS/IFNγ and LPS/IFNγ alone in chemotaxis assays to assess how suppression of MΦ activation by chemerin and the synthetic C-terminal peptide, C15 might affect further MΦ recruitment (See FIG. 4H).
Conditioned media from macrophages treated with C140+LPS/IFNγ, C15m+LPS/IFNγ, C17m+LPS/IFNγ and LPS/IFNγ alone were used in secondary chemotaxis assays to assess the potential pathophysiological repercussions associated with suppression of macrophage activation by C140 and its C-terminal peptides.
Cells (0.5×10^6) were allowed to migrate towards chemoattractant (Chemerin peptides) or conditioned media in the bottom well of a modified Boyden chamber over 4 h. Serum free media (SFM) was used as a negative control. Filters were fixed in 4% formalin, then nuclei were stained with DAPI and visualised. Bar graphs indicate mean Migration Index (Chemoattractant % threshold area/SFM % threshold area)±SEM for each treatment group. Each bar represents at least triplicate wells and 6 pictures taken per treatment. p<0.001 ***; p<0.01 ** significance is relative to LPS/IFNγ conditioned media unless otherwise stated. AB refers to anti-murine Chemerin antibody.
Cell migration was assessed by use of transwell membranes (ChemoTX, 6-mm diameter, 8-μm pore size). Briefly, BioGEL-elicited cells were harvested and placed on transwell membranes (250 000 cells/membrane in RPMI supplemented with 25 mM Hepes and 0.1% bovine serum albumin. Cells were allowed to migrate toward Chemerin peptides (1 pM-100 nM) for 4 h. Signal transduction via G protein-coupled receptors was blocked by preincubating cells with pertussis toxin (PTX, 200 ng/ml, Sigma-Aldrich) for 30 mins before placing cells on transwell membranes. Migrated cells on the underside of membranes were fixed (3% formaldehyde) and stained with DAPI. Migration was quantified as total pixel count of DAPI stained nuclei under the confocal microscope (2 photos/membrane and a minimum of 3 replicate wells per treatment). Images were analyzed using Metamorph Offline software to determine percentage threshold areas (TA) occupied by migrated cells. Migration indices were obtained by dividing treatment TA by serum-free media TA. For secondary chemotaxis assays ChemoTx 3-mm diameter, 8-μm pore membranes were used with 50 000 cells/membrane.

“GLFHDQAGPPAGYEF (Scrambled C15) [C15-S, control peptide, scrambled C15, reference compound]”: in experiment [1], the “Percentage inhibition of LPS/IFNγ-induced inflammatory cytokine expression: RANTES” value stood at 0%, the “Percentage inhibition of LPS/IFNγ-induced inflammatory cytokine expression: TNFα” value stood at 0% and the “Anti-inflammatory activity in the MΦ activation assay” value is recorded as “devoid of anti-inflammatory activity”.

Consider “AGEDPHGYFLPGQFAFS (listed as Mus sp.) [C17m]”, for which, in experiment [1], the “Suppression of LPS/IFNγ-induced RANTES secretion (FIG. 2B)” value came to 49% and the “Suppression of LPS/IFNγ-induced TNFα expression (FIG. 2B)” value was 66%. In addition, in experiment [2], the “Macrophage chemotaxis towards conditioned media from treated + LPS/IFNγ macrophages (FIG. 5)” value was “reduced chemotaxis”.

In the case of “AGEDPHGYFLPGQFA (listed as Mus sp.) [C15]”, in experiment [1], the “Suppression of LPS/IFNγ-induced RANTES secretion (FIG. 2B)” value came out at 41%, the “Suppression of LPS/IFNγ-induced TNFα expression (FIG. 2B)” value turned out to be 56%, the “Percentage inhibition of LPS/IFNγ-induced inflammatory cytokine expression: RANTES” value is reported as 47% and the “Percentage inhibition of LPS/IFNγ-induced inflammatory cytokine expression: TNFα” value was determined as 61%. Further, in experiment [1], the “Percentage inhibition of LPS/IFNγ-induced inflammatory cytokine expression: IL-1β” value was determined as 54%, the “Percentage inhibition of LPS/IFNγ-induced inflammatory cytokine expression: IL-6” value was found to be 43%, the “Percentage inhibition of LPS/IFNγ-induced inflammatory cytokine expression: IL-12 p40” value came to 47% and the “Optimal dose (maximal response) for suppression of LPS/IFNγ-induced cytokine expression” value is listed as 1 pM. Further, in experiment [2], the “Macrophage chemotaxis towards conditioned media from treated + LPS/IFNγ macrophages (FIG. 5)” value was “reduced chemotaxis” and the “Reduction of MΦ chemotaxis towards conditioned media from treated + LPS/IFNγ macrophages (FIG. 4H)” value is recorded as 55%.

As to “AGEDPHGYALPGQAA (Mutant C15) [C15-M, control peptide, mutant C15 (F148A & F153A), reference compound]”, in experiment [1], the “Percentage inhibition of LPS/IFNγ-induced inflammatory cytokine expression: RANTES” value stood at 0%, the “Percentage inhibition of LPS/IFNγ-induced inflammatory cytokine expression: TNFα” value came to 0% and the “Anti-inflammatory activity in the MΦ activation assay” value is given as “devoid of anti-inflammatory activity”.

B1: Chemerin: 140 amino acid mouse Chemerin protein of Sequence ID no: 34 (protein, listed as Mus sp.)
chain: TVGTEPELSETQRRSLQVALEEFHKHPPVQLAFQEIGVDRAEEVLFSAGTFVRLEFKLQQTNCPKKDWKKPECTIKPNGRRRKCLACIKMDPKGKILGRIVHCPILKQGPQDPQELQCIKIAQAGEDPHGYFLPGQFAFS
As for B1, in experiment [1], the “Percentage inhibition of LPS/IFNγ-induced inflammatory cytokine expression: RANTES” value was determined as 40%, the “Percentage inhibition of LPS/IFNγ-induced inflammatory cytokine expression: TNFα” value was 70%, the “Percentage inhibition of LPS/IFNγ-induced inflammatory cytokine expression: IL-1β” value is recorded as 60% and the “Percentage inhibition of LPS/IFNγ-induced inflammatory cytokine expression: IL-6” value amounted to 42%. In addition, in experiment [1], the “Percentage inhibition of LPS/IFNγ-induced inflammatory cytokine expression: IL-12 p40” value is reported as 54% and the “Optimal dose (maximal response) for suppression of LPS/IFNγ-induced cytokine expression” value is recorded as 1 pM. For the same molecule, in experiment [1] (chemerin 0.1-1 pM ± PTX 200 ng/ml), the “Pertussis toxin sensitivity of the effects on macrophages (FIG. 1D)” value is on record as “pertussis toxin-sensitive”. Also, in experiment [2], the “Macrophage chemotaxis towards conditioned media from treated + LPS/IFNγ macrophages (FIG. 5)” value was “reduced chemotaxis” and the “Reduction of MΦ chemotaxis towards conditioned media from treated + LPS/IFNγ macrophages (FIG. 4H)” value stood at 49%.

Values taken from US8906865B2, “Treatment of inflammation and/or endotoxic shock” (ISIS Innovation Limited, priority 2007, dated 2014).
